These are literature values, as cited in US20140017308A1, “COMPOSITIONS COMPRISING A FATTY ACID OIL MIXTURE, A FREE FATTY ACID, AND A STATIN” (Pronova Biopharma Norge AS, priority 2010, published 2014).

The conditions of the data set: in vivo.

By half-life is commonly meant how long it takes for the measured level to halve. Take `CC[C@H](C)C(=O)O[C@H]1C[C@H](O)C=C2C=C[C@H](C)[C@H](CC[C@@H](O)C[C@@H](O)CC(=O)O)[C@H]21` [pravastatin]: the half-life entry was “about 0.8 hours”.

For the compound `CC(C)c1nc(N(C)S(C)(=O)=O)nc(-c2ccc(F)cc2)c1/C=C/[C@@H](O)C[C@@H](O)CC(=O)O` [rosuvastatin], the half-life result is recorded as “about 20 hours”.

On to `CCC(C)(C)C(=O)O[C@H]1C[C@@H](C)C=C2C=C[C@H](C)[C@H](CC[C@@H]3C[C@@H](O)CC(=O)O3)[C@H]21` [simvastatin], for which the half-life was 2 to 3 h.
